Reference: article PMC12217463, “Functional and structural analyses of amino acid sequence variation in PDC β-lactamase reveal different mechanistic pathways toward cefiderocol resistance in Pseudomonas aeruginosa” (Antimicrobial Agents and Chemotherapy, 2025)
Values after ≈ are worked out from the molar mass of the structure shown.

What was measured:
[1] = molecular target: PDC L293P (Pseudomonas aeruginosa, UniProt P24735, L320P); assay: Steady-state kinetics of purified β-lactamase; conditions: for Km / kcat: PDC L293P, 10 mM PBS, pH 7.4, room temperature; for Km: antibiotics: determined as Ki app with nitrocefin as reporter substrate; for kcat: direct hydrolysis at substrate concentration at least three times the Km; for Ratio for PDC L293P/PDC-1: ratio of kcat/Km (fold change in catalytic efficiency)
[2] = test system: PAO1 + blaPDC F121L + G220S; assay: MIC, broth microdilution; assay type: cell-based; conditions: Pseudomonas aeruginosa
[3] = test system: PAO1 + blaPDC G202S; assay: MIC, broth microdilution; assay type: cell-based; conditions: Pseudomonas aeruginosa
Text: (§1) We took advantage of a previously constructed and characterized laboratory collection of recombinant P. aeruginosa PAO1 isolates expressing different blaPDC variants, but specifically enriched for this work with additional variants, following the previously described methodology ([17]). […] The final collection comprised 40 recombinant isolates (20 in PAO1 and 20 in PAO ΔpiuC) producing the wild-type PDC-1 variant from PAO1 and 19 derivatives carrying specific amino acid substitutions previously associated with the development of resistance to ceftazidime/avibactam, ceftolozane/tazobactam, or cefiderocol: T70I, F121L, P153L, G156D, A200T, G202S, ΔG202-E219, G214R, P215L, P215S, ΔP215-G222, D217N, E219K, E219G, E219D, S226ins, L293P, F121L + E219K, and F121L + G222S.
(§2) The MICs of ceftazidime, ceftazidime/avibactam, ceftolozane/tazobactam, cefepime, and cefiderocol were determined in triplicate, for all isolates, by reference broth microdilution assays. Avibactam and tazobactam were fixed at 4 mg/L. All assays were performed using cation-adjusted Mueller-Hinton broth (CAMHB), except for cefiderocol, which was determined in all cases using iron-depleted CAMHB, prepared according to CLSI M100 guidelines ([40]). EUCAST v.15.0 clinical breakpoints and guidelines (http://www.eucast.org/clinical_breakpoints/) were used for reference purposes. Reference strains Escherichia coli ATCC 25922, Klebsiella pneumoniae ATCC 700603, and P. aeruginosa ATCC 27853 were used as controls.

[4] = test system: PAO1 + blaPDC L293P; assay: MIC, broth microdilution; assay type: cell-based; conditions: Pseudomonas aeruginosa
Text: as §1, §2

[5] = test system: PAO1; assay: MIC, broth microdilution; assay type: cell-based; conditions: Pseudomonas aeruginosa; PAO1 wild type, no plasmid-borne PDC; avibactam and tazobactam fixed at 4 mg/L; FDC in iron-depleted CAMHB
Text: as §1, §2

[6] = test system: PAO1 + blaPDC F121L; assay: MIC, broth microdilution; assay type: cell-based; conditions: Pseudomonas aeruginosa
Text: as §1, §2

[7] = test system: PAO1 + blaPDC A200T; assay: MIC, broth microdilution; assay type: cell-based; conditions: Pseudomonas aeruginosa
Text: as §1, §2

[8] = test system: PAO1 + blaPDC E219K; assay: MIC, broth microdilution; assay type: cell-based; conditions: Pseudomonas aeruginosa
Text: as §1, §2

[9] = test system: PAO1 + blaPDC-1 (WT); assay: MIC, broth microdilution; assay type: cell-based; conditions: Pseudomonas aeruginosa, avibactam and tazobactam fixed at 4 mg/L, FDC in iron-depleted CAMHB
Text: as §1, §2

[10] = test system: PAO1 + blaPDC S226ins; assay: MIC, broth microdilution; assay type: cell-based; conditions: Pseudomonas aeruginosa, avibactam and tazobactam fixed at 4 mg/L, FDC in iron-depleted CAMHB
Text: as §1, §2

[11] = test system: PAO1 + blaPDC D217N; assay: MIC, broth microdilution; assay type: cell-based; conditions: Pseudomonas aeruginosa
Text: as §1, §2

[12] = test system: PAO1 + blaPDC ∆G202-E219; assay: MIC, broth microdilution; assay type: cell-based; conditions: Pseudomonas aeruginosa, avibactam and tazobactam fixed at 4 mg/L, FDC in iron-depleted CAMHB
Text: as §1, §2

[13] = test system: PAO1 + blaPDC G214R; assay: MIC, broth microdilution; assay type: cell-based; conditions: Pseudomonas aeruginosa
Text: as §1, §2

[14] = test system: PAO1 + blaPDC ∆P215-G222; assay: MIC, broth microdilution; assay type: cell-based; conditions: Pseudomonas aeruginosa, avibactam and tazobactam fixed at 4 mg/L, FDC in iron-depleted CAMHB
Text: as §1, §2

[15] = test system: PAO1 + blaPDC E219G; assay: MIC, broth microdilution; assay type: cell-based; conditions: Pseudomonas aeruginosa
Text: as §1, §2

[16] = test system: PAO1 + blaPDC P215S; assay: MIC, broth microdilution; assay type: cell-based; conditions: Pseudomonas aeruginosa
Text: as §1, §2

[17] = test system: PAO1 + blaPDC T70I; assay: MIC, broth microdilution; assay type: cell-based; conditions: Pseudomonas aeruginosa
Text: as §1, §2

[18] = test system: PAO1 + blaPDC G156D; assay: MIC, broth microdilution; assay type: cell-based; conditions: Pseudomonas aeruginosa
Text: as §1, §2

[19] = test system: PAO1 + blaPDC F121L + E219K; assay: MIC, broth microdilution; assay type: cell-based; conditions: Pseudomonas aeruginosa
Text: as §1, §2

[20] = test system: PAO1 + blaPDC P215L; assay: MIC, broth microdilution; assay type: cell-based; conditions: Pseudomonas aeruginosa
Text: as §1, §2

[21] = test system: PAO1 + blaPDC E219D; assay: MIC, broth microdilution; assay type: cell-based; conditions: Pseudomonas aeruginosa
Text: as §1, §2

[22] = test system: PAO1 + blaPDC P153L; assay: MIC, broth microdilution; assay type: cell-based; conditions: Pseudomonas aeruginosa
Text: as §1, §2

[23] = molecular target: PDC E219K (Pseudomonas aeruginosa, UniProt P24735, E247K); assay: Steady-state kinetics of purified β-lactamase; conditions: for increase in kcat values: PDC E219K relative to PDC-1; for Km / kcat: PDC E219K, 10 mM PBS, pH 7.4, room temperature; for Km: antibiotics: determined as Ki app with nitrocefin as reporter substrate; for kcat: direct hydrolysis at substrate concentration at least three times the Km; for Ratio for PDC E219K/PDC-1: ratio of kcat/Km (fold change in catalytic efficiency)
[24] = molecular target: PDC-1 (WT) (Pseudomonas aeruginosa, UniProt P24735); assay: Steady-state kinetics of purified β-lactamase; conditions: for kcat: PDC-1 (WT), direct hydrolysis at substrate concentration at least three times the Km, 10 mM PBS, pH 7.4, room temperature; for Ratio: kcat/Km relative to PDC-1 (reference = 1)

Row | SMILES | Km [1] [µM] | kcat [1] [s⁻¹] | Ratio for PDC L293P/PDC-1 [1] | MIC [2] [µg/mL] | MIC [3] [µg/mL] | MIC [4] [µg/mL] | MIC [5] [µg/mL] | MIC [6] [µg/mL] | MIC [7] [µg/mL] | MIC [8] [µg/mL] | MIC [9] [µg/mL] | MIC [10] [µg/mL] | MIC [11] [µg/mL] | MIC [12] [µg/mL] | MIC [13] [µg/mL] | MIC [14] [µg/mL] | MIC [15] [µg/mL] | MIC [16] [µg/mL] | Km [23] [µM] | Ratio [24] | other results
1 | CC(C)(O/N=C(\C(=O)N[C@@H]1C(=O)N2C(C(=O)[O-])=C(C[n+]3ccccc3)CS[C@H]12)c1csc(N)n1)C(=O)O [CAZ, ceftazidime] | 2.84 ± 0.31 | 0.0110 ± 0.0003 | 8.67 | 64 (≈ 117 µM) | 64 (≈ 117 µM) | 64 (≈ 117 µM) | ≤ 1 | 64 (≈ 117 µM) | 64 (≈ 117 µM) | 256 (≈ 468 µM) | 32 | 128 | 64 (≈ 117 µM) | 64 | 128 (≈ 234 µM) | 256 | 16 (≈ 29.3 µM) | 64 (≈ 117 µM) | 292 ± 27.5 | 1 | MIC [17]: 64 µg/mL (≈ 117 µM); MIC [18]: 64 µg/mL (≈ 117 µM); MIC [19]: > 256 µg/mL; MIC [20]: 64 µg/mL (≈ 117 µM); MIC [21]: 64 µg/mL (≈ 117 µM); MIC [22]: 128 µg/mL (≈ 234 µM); increase in kcat values [23]: ≈ 267 fold; kcat ([23]; listed as Ceftazidime): 2.19 ± 0.17 s⁻¹; kcat ([23]; listed as ceftazidime): 2.19 s⁻¹; Ratio for PDC E219K/PDC-1 ([23]; listed as Ceftazidime): 15.56; Ratio for PDC E219K/PDC-1 ([23]; listed as ceftazidime): ≈ 16; kcat [24]: 0.0082 s⁻¹
2 | Cn1c(N)c(NC(=O)NCCN)c[n+]1CC1=C(C(=O)O)N2C(=O)[C@@H](NC(=O)/C(=N\OC(C)(C)C(=O)[O-])c3nsc(N)n3)[C@H]2SC1 [Ceftolozane, ceftolozane] | 108 ± 28.8 | 0.051 ± 0.007 | 3.69 | – | – | – | – | – | – | – | – | – | – | – | – | – | – | – | 266 ± 43.5 | 1 | increase in kcat values [23]: ≈ 58 fold; kcat [23]: 4.18 ± 0.19 s⁻¹; kcat ([23]; listed as ceftolozane): 4.18 s⁻¹; Ratio for PDC E219K/PDC-1 [23]: 123.08; Ratio for PDC E219K/PDC-1 ([23]; listed as ceftolozane): ≈ 123; kcat [24]: 0.0715 s⁻¹
3 | CO/N=C(\C(=O)N[C@@H]1C(=O)N2C(C(=O)[O-])=C(C[N+]3(C)CCCC3)CS[C@H]12)c1csc(N)n1 [FEP, cefepime] | 4.58 ± 0.42 | 0.189 ± 0.007 | 39.29 | 32 (≈ 66.6 µM) | 16 (≈ 33.3 µM) | 128 (≈ 266 µM) | 2 | 16 (≈ 33.3 µM) | 16 (≈ 33.3 µM) | 32 (≈ 66.6 µM) | 16 | 8 | 16 (≈ 33.3 µM) | 8 | 16 (≈ 33.3 µM) | 32 | 4 (≈ 8.32 µM) | 8 (≈ 16.6 µM) | 92.5 ± 26.3 | 1 | improvement in substrate binding affinity (Km decrease) ([1]; PDC L293P relative to PDC-1): ≈ 29 fold; MIC [17]: 16 µg/mL (≈ 33.3 µM); MIC [18]: 4 µg/mL (≈ 8.32 µM); MIC [19]: 32 µg/mL (≈ 66.6 µM); MIC [20]: 8 µg/mL (≈ 16.6 µM); MIC [21]: 8 µg/mL (≈ 16.6 µM); MIC [22]: 32 µg/mL (≈ 66.6 µM); kcat [23]: 0.25 ± 0.06 s⁻¹; Ratio for PDC E219K/PDC-1 [23]: 2.57
